From patent US20230124862A1, “BISMUTH THIOL COMPOUNDS AND COMPOSITIONS AND METHODS OF TREATING MICROBIAL CO-INFECTIONS” (Microbion Corporation, priority 2020, published 2023)
≈ marks a conversion by molar mass, not a printed value.

Experiments:
[1] = system: Pseudomonas aeruginosa; conditions: P. aeruginosa ATCC 27853; CLSI established QC range; cited from earlier work
[2] = system: Pseudomonas aeruginosa; experiment: Broth microdilution MIC (Example 12); type: cell-based
[3] = system: Klebsiella pneumoniae; experiment: Broth microdilution MIC (Example 12); type: cell-based
[4] = system: Escherichia coli; conditions: E. coli ATCC 25922; CLSI established QC range; cited from earlier work
[5] = system: Gram-positive aerobic bacteria (S. aureus, MRSA, CA-MRSA); experiment: MIC90 against 150 clinical isolates of Gram-positive aerobic bacteria; type: cell-based; conditions: S. aureus (50 isolates)
[6] = system: P. aeruginosa and A. baumannii; conditions: P. aeruginosa (MMX 103), QC; cited from earlier work
[7] = system: Escherichia coli; experiment: Broth microdilution MIC (Example 12); type: cell-based
[8] = system: Enterobacteriaceae; conditions: E. coli (MMX 102), QC; cited from earlier work
[9] = system: Enterobacteriaceae; experiment: Broth microdilution MIC (Example 11); type: cell-based, E. coli, K. pneumoniae, Enterobacter cloacae
[10] = system: Acinetobacter baumannii; experiment: Broth microdilution MIC (Example 12); type: cell-based

In the case of `CC(C)(O/N=C(\C(=O)N[C@@H]1C(=O)N2C(C(=O)[O-])=C(C[n+]3ccccc3)CS[C@H]12)c1csc(N)n1)C(=O)O` [CAZ], the “QC range of MIC” value [1] is given as “(1-4) μg/mL”, the MIC ([2]; P. aeruginosa ATCC 27853, ATCC QC organism (Table 102)) is given as 2 µg/mL (≈ 3.66 µM) and the MIC ([2]; P. aeruginosa CDC 230, VIM/OXA) is given as 64 µg/mL (≈ 117 µM). For the same compound, the MIC ([2]; P. aeruginosa CDC 231, KPC/OXA) was greater than 64 µg/mL, the MIC ([2]; P. aeruginosa CDC 241, IMP/OXA) was greater than 64 µg/mL and the MIC ([2]; P. aeruginosa CDC 246, NDM/OXA) was greater than 64 µg/mL. The MIC ([2]; P. aeruginosa CDC 250, NDM/OXA) was greater than 64 µg/mL, the MIC ([2]; P. aeruginosa CDC 356, KPC) was 64 µg/mL (≈ 117 µM) and the MIC ([2]; P. aeruginosa CDC 439, IMP) was greater than 64 µg/mL. For the same compound, the MIC ([2]; P. aeruginosa CDC 444, VIM) was 32 µg/mL (≈ 58.5 µM), the MIC ([2]; P. aeruginosa CDC 457, VIM) was greater than 64 µg/mL and the MIC ([2]; P. aeruginosa CDC 516, KPC/AmpC) was 64 µg/mL (≈ 117 µM). It also gave an MIC ([2]; P. aeruginosa CDC 518, KPC/AmpC) of 32 µg/mL (≈ 58.5 µM), an MIC ([3]; K. pneumoniae ATCC BAA-1705, ATCC QC organism (Table 102)) greater than 64 µg/mL and an MIC ([3]; K. pneumoniae ATCC BAA-1705, ESBL/KPC) greater than 64 µg/mL. It also gave an MIC ([3]; K. pneumoniae CDC 112, KPC) greater than 64 µg/mL, an MIC ([3]; K. pneumoniae CDC 113, ESBL/KPC) greater than 64 µg/mL and an MIC ([3]; K. pneumoniae CDC 115, ESBL/KPC) greater than 64 µg/mL. The MIC ([3]; K. pneumoniae CDC 120, ESBL/KPC) was greater than 64 µg/mL, the MIC ([3]; K. pneumoniae CDC 126, ESBL/KPC) was 4 µg/mL (≈ 7.32 µM) and the MIC ([3]; K. pneumoniae CDC 129, ESBL/KPC) was greater than 64 µg/mL. The MIC ([3]; K. pneumoniae CDC 135, ESBL/VIM) was greater than 64 µg/mL, the MIC ([3]; K. pneumoniae CDC 138, ESBL/NDM) was greater than 64 µg/mL and the MIC ([3]; K. pneumoniae CDC 158, ESBL/NDM/OXA) was greater than 64 µg/mL. For the same compound, the MIC ([3]; K. pneumoniae MMX 9029, ESBL) was 4 µg/mL (≈ 7.32 µM), the “QC range of MIC” value [4] was “(0.06-0.5) μg/mL” and the MIC90 ([5]; CA-MRSA) was greater than 64 µg/mL. The MIC90 ([5]; MRSA) was greater than 64 µg/mL, the MIC90 ([5]; MSSA) was 16 µg/mL (≈ 29.3 µM) and the “CLSI Quality Control Range (MIC)” value [6] was “(1.4)”. For the same compound, the MIC ([7]; E. coli ATCC 25922, ATCC QC organism (Table 102)) was 0.25 µg/mL (≈ 0.457 µM), the MIC ([7]; E. coli ATCC 35218, ATCC QC organism (Table 102)) was 0.12 µg/mL (≈ 0.22 µM) and the MIC ([7]; E. coli ATCC 35218, ESBL) was 0.12 µg/mL (≈ 0.22 µM). It also gave an MIC ([7]; E. coli ATCC BAA-2471, NDM) greater than 64 µg/mL, an MIC ([7]; E. coli CDC 114, ESBL/KPC) greater than 64 µg/mL and an MIC ([7]; E. coli CDC 118, ESBL/NDM) greater than 64 µg/mL. It also gave an MIC ([7]; E. coli CDC 435, NDM) greater than 64 µg/mL, an MIC ([7]; E. coli CDC 451, KPC) of 64 µg/mL (≈ 117 µM) and an MIC ([7]; E. coli CDC 503, ESBL/NDM) greater than 64 µg/mL. For the same compound, the MIC ([7]; E. coli MMX 5745, KPC) was 32 µg/mL (≈ 58.5 µM), the MIC ([7]; E. coli MMX 5755, ESBL) was greater than 64 µg/mL and the MIC ([7]; E. coli MMX 5756, ESBL) was greater than 64 µg/mL. The MIC ([7]; E. coli MMX 5758, ESBL) was 16 µg/mL (≈ 29.3 µM), the “CLSI Quality Control Range (MIC)” value [8] was “(0.06-0.5) μg/mL” and the MIC ([9]; E. cloacae (MMX 5981), NDM-1, LVX-R, MEM-R, CAZ-R, GEN-R) was greater than 32 µg/mL. The MIC ([9]; E. coli (MMX 102), QC) was 0.12 µg/mL (≈ 0.22 µM), the MIC ([9]; E. coli (MMX 5980), NDM-1, LVX-R, MEM-R, CAZ-R, GEN-R) was greater than 32 µg/mL and the MIC ([9]; E. coli (MMX 8423), ESBL, LVX-R, CAZ-R, GEN-R) was 32 µg/mL (≈ 58.5 µM). The MIC ([9]; E. coli (MMX 8424), ESBL, CAZ-R) was 16 µg/mL (≈ 29.3 µM), the MIC ([9]; E. coli (MMX 8425), ESBL, LVX-R, CAZ-R, GEN-R) was 16 µg/mL (≈ 29.3 µM) and the MIC ([9]; K. pneumoniae (MMX 4622), KPC-2, MEM-R, CAZ-R) was greater than 32 µg/mL. It also gave an MIC ([9]; K. pneumoniae (MMX 4623), KPC-2, MEM-R, CAZ-R, GEN-R) greater than 32 µg/mL, an MIC ([9]; K. pneumoniae (MMX 4653), KPC-3, LVX-R, MEM-R, CAZ-R) greater than 32 µg/mL and an MIC ([9]; K. pneumoniae (MMX 4683), KPC-2, LVX-R, MEM-R, CAZ-R) greater than 32 µg/mL. The MIC ([9]; K. pneumoniae (MMX 4684), ESBL, MEM-R) was 8 µg/mL (≈ 14.6 µM), the MIC ([9]; K. pneumoniae (MMX 4685), ESBL, LVX-R, MEM-R, CAZ-R) was greater than 32 µg/mL and the MIC ([9]; K. pneumoniae (MMX 4694), KPC-3, LVX-R, MEM-R, CAZ-R) was greater than 32 µg/mL. For the same compound, the MIC ([9]; K. pneumoniae (MMX 5979), NDM-1, LVX-R, MEM-R, CAZ-R, GEN-R) was greater than 32 µg/mL, the MIC ([10]; A. baumannii CDC 273, ESBL/OXA) was 64 µg/mL (≈ 117 µM) and the MIC ([10]; A. baumannii CDC 274, ESBL/OXA) was greater than 64 µg/mL. For the same compound, the MIC ([10]; A. baumannii CDC 275, ESBL/OXA) was greater than 64 µg/mL, the MIC ([10]; A. baumannii CDC 277, ESBL/OXA) was greater than 64 µg/mL and the MIC ([10]; A. baumannii CDC 284, ESBL/OXA) was 64 µg/mL (≈ 117 µM). The MIC ([10]; A. baumannii CDC 307, OXA) was 64 µg/mL (≈ 117 µM), the MIC ([10]; A. baumannii CDC 308, ESBL/OXA) was 64 µg/mL (≈ 117 µM) and the MIC ([10]; A. baumannii CDC 311, OXA) was greater than 64 µg/mL. For the same compound, the MIC ([10]; A. baumannii CDC 312, OXA) was greater than 64 µg/mL, the MIC ([10]; A. baumannii CDC 313, ESBL/OXA) was greater than 64 µg/mL and the MIC ([10]; A. baumannii NCTC 13304, OXA) was greater than 64 µg/mL.
